Measurements as given in publication PMC10281321, “Discovery of an effective anti-inflammatory agent for inhibiting the activation of NF-κB” (Journal of Enzyme Inhibition and Medicinal Chemistry, 2023).

Tests used:
Assay type in all cases: cell-based
[1] = system: LPS-stimulated RAW264.7 cells; assay: NO release inhibition in LPS-stimulated RAW264.7 cells (Griess reagent); conditions: for IC50: Mus musculus, LPS-stimulated RAW264.7 cells, Griess Reagent; for anti-inflammatory activity (in words): SAR summary covering NO release and NF-κB reporter inhibition
Protocol: After incubated for 24 hours, cells were treated with tested compounds for different
concentrations(3.125,6.25,12.5,25 and 50μM) for 1 h, and then treated with 1 μg/mL LPS
for further 24 h. The supernatants were collected and NO level was measured using
Griess reagent (Beyotime, China). […]

NF-κB = NF-κB transcriptional activity dual-luciferase reporter assay, TNF-α stimulated; conditions: Homo sapiens, HEK-293T, HEK293T cells transfected with NF-κB reporter plasmid, stimulated by TNF-α
Protocol: 4.5. NF-κB transcriptional activity assay
HEK293T cells were seeded into 96 well plate at a density of 1×10^5 cells per well. After incubated for 24 hours, cells were transfected with NF-κB reporter plasmid at 100 ng/well using lip2000.Six hours later, the medium was replaced by fresh medium containing tested compounds with different concentrations. Then incubated for another hour, TNF-α was added for a final concentration at 10 ng/mL.12 hours later, the cell lysate was collected and the RLU was measured by microplate reader. […]

[2] = Cytotoxicity by MTT assay

Row | SMILES | IC50 [1] [µM] | anti-inflammatory activity (in words) [1] | IC50 (NF-κB) [µM] | IC50 [2] [µM]
1 | CCc1ccc(-c2cnc(N)c(C(=O)Nc3cccc(NC(C)=O)c3)c2)cc1 [Compound 14] | 3.2 ± 1.1 | strong anti-inflammatory activity | 0.167 ± 0.0084 | > 25
2 | COc1ccc(-c2cnc(N)c(C(=O)Nc3ccc(NC(C)=O)cc3)c2)c(OC)c1OC [Compound 34] | > 50 |  | > 2 | > 50
3 | CCc1ccc(-c2cc(C(=O)Nc3ccc(NC(C)=O)cc3)cnc2N)cc1 [Compound 27] | 21.5 ± 2.6 |  | 1.11 ± 0.0124 | > 25
4 | CC(=O)Nc1ccc(NC(=O)c2cc(-c3ccc(C#N)cc3)cnc2N)cc1 [Compound 46] | > 50 |  | > 2 | > 50
5 | CC(=O)Nc1ccc(NC(=O)c2cc(-c3ccc(Cl)cc3)cnc2N)cc1 [Compound 35] | 4.2 ± 0.8 | significantly improved the anti-inflammatory activity | 0.207 ± 0.013 | > 50
6 | CCc1ccc(-c2cnc(N)c(C(=O)Nc3ccccc3)c2)cc1 [Compound 6] | 19.7 ± 2.6 |  | 1.62 ± 0.0132 | > 25
7 | CC(=O)Nc1ccc(NC(=O)c2cc(-c3cccc(O)c3)cnc2N)cc1 [Compound 44] | > 50 |  | > 2 | > 50
8 | Cc1ccc(S(=O)(=O)/C=C/C#N)cc1 [Bay11-7082, reference compound] | 2.1 ± 0.7 |  | 0.0915 ± 0.0103 | 22.7 ± 3.4
9 | CCc1ccc(-c2cnc(N)c(C(=O)Nc3cccc(N)c3)c2)cc1 [Compound 11] | 1.7 ± 0.9 |  | 0.0958 ± 0.0062 | > 25
10 | CC(=O)Nc1ccc(NC(=O)c2cc(-c3ccccc3C(F)(F)F)cnc2N)cc1 [Compound 42] | 14.6 ± 2.3 |  | 1.01 ± 0.0184 | > 50
11 | CC(=O)Nc1ccc(NC(=O)c2cc(-c3ccc(C)cc3)cnc2N)cc1 [Compound 28] | 24.2 ± 4.1 | anti-inflammatory activity decreased significantly | > 2 | > 50
12 | CCc1ccc(NC(=O)c2cc(-c3ccc(CC)cc3)cnc2N)cc1 [Compound 19] | 28.5 ± 2.1 |  | > 2 | > 25
13 | CC(=O)Nc1ccc(NC(=O)c2cc(-c3ccc(C(F)(F)F)cc3)cnc2N)cc1 [Compound 40] | 26.5 ± 3 |  | > 2 | > 50
14 | COc1ccccc1-c1cnc(N)c(C(=O)Nc2ccc(NC(C)=O)cc2)c1 [Compound 33] | > 50 |  | > 2 | > 50
15 | CCc1ccc(-c2cccc(C(=O)Nc3ccc(NC(C)=O)cc3)c2)cc1 [Compound 23] | 32.7 ± 3.4 |  | > 2 | > 25
16 | CC(=O)Nc1ccc(NC(=O)c2cc(-c3cccc(C(F)(F)F)c3)cnc2N)cc1 [Compound 41] | 8.4 ± 1.7 |  | 0.307 ± 0.0214 | > 50
17 | CC(=O)Nc1ccc(NC(=O)c2cc(-c3ccc(O)cc3)cnc2N)cc1 [Compound 43] | > 50 |  | > 2 | > 50
18 | CCc1ccc(-c2cnc(N)c(C(=O)Nc3ccccc3NC(C)=O)c2)cc1 [Compound 15] | 1.1 ± 0.4 | strong anti-inflammatory activity | 0.532 ± 0.0135 | 3.2 ± 0.8
19 | CCc1ccc(-c2cnc(N)c(C(=O)Nc3cccc(C)c3)c2)cc1 [Compound 8] | 15.2 ± 2.8 |  | 1.329 ± 0.0115 | > 25
20 | CCc1ccc(-c2cnc(N)c(C(=O)Nc3ccc(C(N)=O)cc3)c2)cc1 [Compound 22] | > 50 | loss of anti-inflammatory activity | > 2 | > 25
21 | CC(=O)Nc1ccc(NC(=O)c2cc(-c3ccccc3C#N)cnc2N)cc1 [Compound 48] | > 50 |  | > 2 | > 50
22 | CC(=O)Nc1ccc(NC(=O)c2cc(-c3ccc(C=O)c(C)c3)cnc2N)cc1 [Compound 49] | > 50 |  | > 2 | > 50
23 | CC(=O)Nc1ccc(NC(=O)c2cc(-c3ccc(F)cc3)cnc2N)cc1 [Compound 38] | 13.7 ± 1.8 |  | 0.827 ± 0.0186 | > 50
24 | CCc1ccc(-c2cnc(N)c(C(=O)Nc3ccc(N)cc3)c2)cc1 [Compound 10] | 2.3 ± 0.9 |  | 0.42 ± 0.0104 | 7.3 ± 1.2
